Reference: the NIST ThermoML archive (doi:10.1016/j.fluid.2019.05.015)

Key:
[1] = mean ionic activity coefficient (dimensionless); mn = molality of the nth substance listed, in mol/kg; conditions: 100 kPa, Liquid, Electrochemical cell potential
[2] = refractive index (Na D-line) (dimensionless); xn = mol fraction of the nth substance listed; conditions: 100 kPa, Liquid, Standard Abbe refractometry

CCn1cc[n+](C)c1.[Br-] [1-ethyl-3-methylimidazolium bromide] + O
Conditions	mean ionic activity coefficient	refractive index
[1], 298.2 K, m1 = 0.021	0.8957	–
[1], 298.2 K, m1 = 0.0419	0.748	–
[1], 298.2 K, m1 = 0.0585	0.7149	–
[1], 298.2 K, m1 = 0.0791	0.6998	–
[1], 298.2 K, m1 = 0.0995	0.6908	–
[1], 298.2 K, m1 = 0.2548	0.5703	–
[1], 298.2 K, m1 = 0.4968	0.4953	–
[1], 298.2 K, m1 = 0.7334	0.45	–
[1], 298.2 K, m1 = 1.003	0.397	–
[1], 298.2 K, m1 = 1.244	0.378	–
[1], 298.2 K, m1 = 1.489	0.361	–
[1], 308.2 K, m1 = 0.0211	0.8798	–
[1], 308.2 K, m1 = 0.042	0.8527	–
[1], 308.2 K, m1 = 0.0586	0.8229	–
[1], 308.2 K, m1 = 0.0793	0.769	–
[1], 308.2 K, m1 = 0.0999	0.7385	–
[1], 308.2 K, m1 = 0.2555	0.6299	–
[1], 308.2 K, m1 = 0.4948	0.5249	–
[1], 308.2 K, m1 = 0.7324	0.4686	–
[1], 308.2 K, m1 = 1.003	0.42	–
[1], 308.2 K, m1 = 1.245	0.39	–
[1], 308.2 K, m1 = 1.489	0.375	–
[1], 308.2 K, m1 = 1.744	0.363	–
[1], 308.2 K, m1 = 1.995	0.346	–
[1], 308.2 K, m1 = 2.251	0.322	–
[1], 308.2 K, m1 = 2.499	0.307	–
[1], 318.2 K, m1 = 0.0093	0.8999	–
[1], 318.2 K, m1 = 0.0187	0.8927	–
[1], 318.2 K, m1 = 0.0418	0.8287	–
[1], 318.2 K, m1 = 0.0603	0.7921	–
[1], 318.2 K, m1 = 0.0786	0.7691	–
[1], 318.2 K, m1 = 0.1014	0.7508	–
[1], 318.2 K, m1 = 0.2568	0.6434	–
[1], 318.2 K, m1 = 0.4956	0.5317	–
[1], 318.2 K, m1 = 0.7332	0.4709	–
[1], 318.2 K, m1 = 1.003	0.423	–
[1], 318.2 K, m1 = 1.244	0.399	–
[1], 318.2 K, m1 = 1.487	0.385	–
[1], 318.2 K, m1 = 1.743	0.366	–
[1], 318.2 K, m1 = 1.995	0.344	–
[1], 318.2 K, m1 = 2.251	0.33	–
[1], 318.2 K, m1 = 2.5	0.32	–
[2], 298.2 K, x2 = 0.0971	–	1.549
[2], 298.2 K, x2 = 0.188	–	1.545
[2], 298.2 K, x2 = 0.2981	–	1.536
[2], 298.2 K, x2 = 0.3857	–	1.5335
[2], 298.2 K, x2 = 0.471	–	1.525
[2], 298.2 K, x2 = 0.5966	–	1.5115
[2], 298.2 K, x2 = 0.6884	–	1.4985
[2], 298.2 K, x2 = 0.7863	–	1.4625
[2], 298.2 K, x2 = 0.8884	–	1.4305
[2], 308.2 K, x2 = 0.0926	–	1.5455
[2], 308.2 K, x2 = 0.1801	–	1.5425
[2], 308.2 K, x2 = 0.2947	–	1.534
[2], 308.2 K, x2 = 0.3829	–	1.53
[2], 308.2 K, x2 = 0.4714	–	1.5235
[2], 308.2 K, x2 = 0.5983	–	1.509
[2], 308.2 K, x2 = 0.6871	–	1.4955
[2], 308.2 K, x2 = 0.7851	–	1.4595
[2], 308.2 K, x2 = 0.888	–	1.427
[2], 318.2 K, x2 = 0.0923	–	1.5425
[2], 318.2 K, x2 = 0.1796	–	1.54
[2], 318.2 K, x2 = 0.2939	–	1.531
[2], 318.2 K, x2 = 0.382	–	1.5265
[2], 318.2 K, x2 = 0.4704	–	1.521
[2], 318.2 K, x2 = 0.5974	–	1.5065
[2], 318.2 K, x2 = 0.6862	–	1.4925
[2], 318.2 K, x2 = 0.7844	–	1.458
[2], 318.2 K, x2 = 0.8876	–	1.425
